US4415584A, “3-Oxo-6-oxa-2-azatricyclo 5.4.2. unadecene-4-carboxylate” (Beecham Group Limited, priority 1978, dated 1983)

Assays:
[1] = tested on: E. coli E96 (RTEM); assay type: in vivo, mice infected with E. coli; settings: amoxycillin alone; printed × 2 (dosed at 1 and 5 hours after infection); mice
Description: Groups of mice were infected intraperitoneally with E. coli E96 (RTEM), and were then dosed at 1 and 5 hours after infection with amoxycillin or amoxycillin and the compound of Example 3.

[2] = tested on: Kleb. aerogenes E70; assay: Antibacterial Activity (Example 4), M.I.C.; assay type: cell-based, Klebsiella aerogenes; settings: compound alone
[3] = tested on: P. mirabilis C889; assay: Antibacterial Activity (Example 4), M.I.C.; assay type: cell-based, Proteus mirabilis; settings: compound alone
[4] = tested on: Staph. aureus Russell; assay: Antibacterial Activity (Example 4), M.I.C.; assay type: cell-based; settings: compound alone
[5] = tested on: E. coli JT39; assay: Antibacterial Activity (Example 4), M.I.C.; assay type: cell-based; settings: compound alone
[6] = tested on: Staph. aureus Russell; assay: Antibacterial Synergy (Example 13), MIC; assay type: cell-based
Description: (§1) The MIC's of ampicillin, the product of Example 10 (synergist) and ampicillin in the presence of the product of Example 10 were determined for a range of bacteria.

[7] = tested on: Klebsiella aerogenes E70; assay: Antibacterial Synergy (Example 13), MIC; assay type: cell-based
Description: as §1

[8] = tested on: Proteus mirabilis C889; assay: Antibacterial Synergy (Example 13), MIC; assay type: cell-based
Description: as §1

[9] = tested on: E. coli JT39; assay: Antibacterial Synergy (Example 13), MIC; assay type: cell-based
Description: as §1

[10] = tested on: mice; assay: Toxicity, intraperitoneal administration to mice; assay type: in vivo; settings: dosages up to 750 mg/kg
Description: The compound of Example 1 (Isomer II) was administered intraperitoneally to mice.

[11] = tested on: P. mirabilis C889; assay: Antibacterial Synergy (Example 4), MIC for ampicillin; assay type: cell-based, Proteus mirabilis; settings: ampicillin alone, no inhibitor
[12] = tested on: E. coli JT39; assay: as above; assay type: cell-based; settings: ampicillin alone, no inhibitor
[13] = tested on: Staph. aureus Russell; assay: as above; assay type: cell-based; settings: ampicillin alone, no inhibitor
[14] = tested on: Kleb. aerogenes E70; assay: as above; assay type: cell-based, Klebsiella aerogenes; settings: ampicillin alone, no inhibitor
[15] = ampicillin + synergist at 20 μg/ml

Structure (SMILES): CC1(C)S[C@@H]2[C@H](NC(=O)[C@H](N)c3ccc(O)cc3)C(=O)N2[C@H]1C(=O)O [Amoxycillin, amoxycillin]
- CD50 [1]: 1000 mg/kg

Structure (SMILES): O=C(O)[C@H]1CC=C2O[C@@H]3CC(=O)N3[C@H]2C1 [Example 3, Sodium (1S, 5R)-Δ^7,8-3-oxo-6-oxa-2-azatricyclo-[5.4.0.0^2,5]undecene-10-carboxylate]
- M.I.C. [2]: > 500 µg/mL
- M.I.C. [3]: > 500 µg/mL
- M.I.C. [4]: 125 µg/mL
- M.I.C. [5]: 250 µg/mL

Structure (SMILES): O=C(O)C1CC=C2O[C@@H]3CC(=O)N3C2C1 (single isomer, unassigned) [Example 10]
- MIC ([6]; Staphylococcus aureus, synergist alone): 125 µg/mL
- MIC Ampicillin [7, 15]: inhibition
- MIC ([7]; synergist alone): 31.2 µg/mL
- MIC Ampicillin [8, 15]: inhibition
- MIC ([8]; synergist alone): 31.2 µg/mL
- MIC ([9]; Escherichia coli, synergist alone): 16 µg/mL
- MIC Ampicillin [9, 15]: inhibition

Structure (SMILES): O=C(OCc1ccccc1)C1CC=C2OC3CC(=O)N3C2C1 (single isomer, unassigned) [2 (Isomer II)]
- M.I.C. [2]: > 500 µg/mL
- M.I.C. [3]: > 500 µg/mL
- M.I.C. [4]: 62.5 µg/mL
- M.I.C. [5]: > 500 µg/mL

Structure (SMILES): COC(=O)C1CC=C2OC3CC(=O)N3C2C1 (single isomer, unassigned) [Example 1 (Isomer II)]
- M.I.C. [2]: > 500 µg/mL
- M.I.C. [3]: > 500 µg/mL
- deaths after 10 days [10]: no deaths were observed at dosages up to 750 mg/kg
- M.I.C. [4]: 125 µg/mL

Structure (SMILES): CC1(C)S[C@@H]2[C@H](NC(=O)[C@H](N)c3ccccc3)C(=O)N2[C@H]1C(=O)O [ampicillin, reference compound]
- MIC for ampicillin [11]: 2000 µg/mL
- MIC for ampicillin [12]: 500 µg/mL
- MIC for ampicillin [13]: > 500 µg/mL
- MIC Ampicillin ([6]; synergist concentration 0): 500 µg/mL
- MIC Ampicillin ([7]; synergist concentration 0): 500 µg/mL
- MIC Ampicillin ([8]; synergist concentration 0): > 2000 µg/mL
- MIC Ampicillin ([9]; synergist concentration 0): > 2000 µg/mL
- MIC for ampicillin [14]: 2000 µg/mL
